Assays:
Test in all cases: Enzyme Assay
PIK3CA (human) = PIK3CA (human) (UniProt P42336)
PIK3CD (Human) = PIK3CD (Human) (UniProt O00329)
PIK3CG (human) = PIK3CG (human) (UniProt P48736)
PIK3CB (Human) = PIK3CB (Human) (UniProt P42338)
PIK3CB (Human), sequence (P42338 whole entry, looked up): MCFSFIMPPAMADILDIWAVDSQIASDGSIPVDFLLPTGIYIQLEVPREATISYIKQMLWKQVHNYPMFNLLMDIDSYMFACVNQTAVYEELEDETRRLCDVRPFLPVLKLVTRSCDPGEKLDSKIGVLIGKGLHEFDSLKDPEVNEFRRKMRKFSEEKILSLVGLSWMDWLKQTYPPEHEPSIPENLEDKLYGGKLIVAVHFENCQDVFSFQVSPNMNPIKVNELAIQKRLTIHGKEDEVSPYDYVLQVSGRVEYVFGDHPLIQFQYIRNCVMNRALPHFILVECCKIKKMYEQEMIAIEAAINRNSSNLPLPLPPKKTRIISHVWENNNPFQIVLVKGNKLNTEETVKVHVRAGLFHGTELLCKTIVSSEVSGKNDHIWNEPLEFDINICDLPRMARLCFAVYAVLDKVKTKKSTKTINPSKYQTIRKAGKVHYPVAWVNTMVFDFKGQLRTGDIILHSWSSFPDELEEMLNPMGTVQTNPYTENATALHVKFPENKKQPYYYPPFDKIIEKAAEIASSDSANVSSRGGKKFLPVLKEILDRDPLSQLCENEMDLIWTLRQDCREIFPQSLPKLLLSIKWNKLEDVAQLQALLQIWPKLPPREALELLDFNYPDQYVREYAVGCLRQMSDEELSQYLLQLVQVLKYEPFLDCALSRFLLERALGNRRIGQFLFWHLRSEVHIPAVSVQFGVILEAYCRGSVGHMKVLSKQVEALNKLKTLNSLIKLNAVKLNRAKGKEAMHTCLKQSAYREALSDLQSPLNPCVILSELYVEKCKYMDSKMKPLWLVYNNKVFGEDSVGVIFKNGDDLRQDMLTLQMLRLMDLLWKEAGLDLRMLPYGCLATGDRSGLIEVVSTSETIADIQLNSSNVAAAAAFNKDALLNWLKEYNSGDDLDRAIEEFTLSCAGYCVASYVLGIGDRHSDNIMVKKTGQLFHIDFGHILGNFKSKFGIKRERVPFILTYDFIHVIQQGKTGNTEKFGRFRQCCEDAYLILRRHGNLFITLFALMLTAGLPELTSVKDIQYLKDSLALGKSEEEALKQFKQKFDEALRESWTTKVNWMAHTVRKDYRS

PIK3CD (Human), sequence (O00329 whole entry, looked up): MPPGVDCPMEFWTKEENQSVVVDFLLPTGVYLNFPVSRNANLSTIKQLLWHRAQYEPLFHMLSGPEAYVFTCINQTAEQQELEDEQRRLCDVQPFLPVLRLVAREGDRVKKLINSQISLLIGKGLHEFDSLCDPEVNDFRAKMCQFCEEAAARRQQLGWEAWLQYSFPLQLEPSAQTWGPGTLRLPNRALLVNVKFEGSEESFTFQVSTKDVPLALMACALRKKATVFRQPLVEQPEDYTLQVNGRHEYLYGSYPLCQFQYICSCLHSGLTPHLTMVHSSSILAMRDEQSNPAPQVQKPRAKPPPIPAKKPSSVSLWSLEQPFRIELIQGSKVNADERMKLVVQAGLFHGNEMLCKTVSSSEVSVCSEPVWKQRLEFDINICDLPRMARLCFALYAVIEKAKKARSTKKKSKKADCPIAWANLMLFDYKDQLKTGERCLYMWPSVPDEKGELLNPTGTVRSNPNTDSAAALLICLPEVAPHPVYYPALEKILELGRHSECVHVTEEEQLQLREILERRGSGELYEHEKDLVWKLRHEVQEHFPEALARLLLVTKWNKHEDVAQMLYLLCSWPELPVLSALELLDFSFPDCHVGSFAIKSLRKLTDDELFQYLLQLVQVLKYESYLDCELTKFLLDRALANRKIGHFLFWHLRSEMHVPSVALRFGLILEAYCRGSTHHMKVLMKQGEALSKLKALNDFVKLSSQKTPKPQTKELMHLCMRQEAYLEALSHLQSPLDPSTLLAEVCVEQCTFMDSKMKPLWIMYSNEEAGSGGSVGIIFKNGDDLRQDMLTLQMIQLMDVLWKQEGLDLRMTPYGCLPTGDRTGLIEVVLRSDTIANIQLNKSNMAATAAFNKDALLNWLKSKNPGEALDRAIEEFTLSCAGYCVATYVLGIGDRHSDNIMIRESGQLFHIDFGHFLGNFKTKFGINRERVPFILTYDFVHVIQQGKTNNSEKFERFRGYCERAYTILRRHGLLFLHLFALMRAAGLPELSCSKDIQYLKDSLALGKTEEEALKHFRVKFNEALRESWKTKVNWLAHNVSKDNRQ
PIK3CA (human), sequence (P42336 whole entry, looked up): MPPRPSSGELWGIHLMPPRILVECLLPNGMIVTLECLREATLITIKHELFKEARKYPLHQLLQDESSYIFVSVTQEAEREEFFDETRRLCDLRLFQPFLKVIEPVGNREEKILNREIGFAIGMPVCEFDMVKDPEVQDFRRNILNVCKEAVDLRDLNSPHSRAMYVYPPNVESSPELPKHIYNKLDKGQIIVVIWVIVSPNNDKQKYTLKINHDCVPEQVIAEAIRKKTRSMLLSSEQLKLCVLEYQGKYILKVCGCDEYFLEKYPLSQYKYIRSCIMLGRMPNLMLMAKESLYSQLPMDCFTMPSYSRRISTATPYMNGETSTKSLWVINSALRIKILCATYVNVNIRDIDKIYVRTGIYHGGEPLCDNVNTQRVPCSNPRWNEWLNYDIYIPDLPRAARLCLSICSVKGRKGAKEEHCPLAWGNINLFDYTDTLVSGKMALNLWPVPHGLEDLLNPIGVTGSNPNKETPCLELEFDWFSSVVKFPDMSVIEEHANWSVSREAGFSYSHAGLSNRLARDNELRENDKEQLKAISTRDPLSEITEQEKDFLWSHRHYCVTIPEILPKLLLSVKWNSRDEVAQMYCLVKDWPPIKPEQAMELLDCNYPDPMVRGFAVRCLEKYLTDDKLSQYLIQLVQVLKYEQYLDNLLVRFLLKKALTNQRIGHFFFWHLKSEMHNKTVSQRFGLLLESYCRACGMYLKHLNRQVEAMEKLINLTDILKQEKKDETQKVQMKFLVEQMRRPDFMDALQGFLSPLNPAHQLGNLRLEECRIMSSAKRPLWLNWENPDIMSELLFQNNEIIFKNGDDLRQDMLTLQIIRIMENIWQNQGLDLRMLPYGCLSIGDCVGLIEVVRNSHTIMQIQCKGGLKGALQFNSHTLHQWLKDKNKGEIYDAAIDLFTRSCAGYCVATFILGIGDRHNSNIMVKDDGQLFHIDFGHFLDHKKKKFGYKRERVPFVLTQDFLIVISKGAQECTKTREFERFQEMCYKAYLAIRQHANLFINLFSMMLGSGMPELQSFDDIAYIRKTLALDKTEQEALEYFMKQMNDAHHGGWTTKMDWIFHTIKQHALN
PIK3CG (human), sequence (P48736 whole entry, looked up): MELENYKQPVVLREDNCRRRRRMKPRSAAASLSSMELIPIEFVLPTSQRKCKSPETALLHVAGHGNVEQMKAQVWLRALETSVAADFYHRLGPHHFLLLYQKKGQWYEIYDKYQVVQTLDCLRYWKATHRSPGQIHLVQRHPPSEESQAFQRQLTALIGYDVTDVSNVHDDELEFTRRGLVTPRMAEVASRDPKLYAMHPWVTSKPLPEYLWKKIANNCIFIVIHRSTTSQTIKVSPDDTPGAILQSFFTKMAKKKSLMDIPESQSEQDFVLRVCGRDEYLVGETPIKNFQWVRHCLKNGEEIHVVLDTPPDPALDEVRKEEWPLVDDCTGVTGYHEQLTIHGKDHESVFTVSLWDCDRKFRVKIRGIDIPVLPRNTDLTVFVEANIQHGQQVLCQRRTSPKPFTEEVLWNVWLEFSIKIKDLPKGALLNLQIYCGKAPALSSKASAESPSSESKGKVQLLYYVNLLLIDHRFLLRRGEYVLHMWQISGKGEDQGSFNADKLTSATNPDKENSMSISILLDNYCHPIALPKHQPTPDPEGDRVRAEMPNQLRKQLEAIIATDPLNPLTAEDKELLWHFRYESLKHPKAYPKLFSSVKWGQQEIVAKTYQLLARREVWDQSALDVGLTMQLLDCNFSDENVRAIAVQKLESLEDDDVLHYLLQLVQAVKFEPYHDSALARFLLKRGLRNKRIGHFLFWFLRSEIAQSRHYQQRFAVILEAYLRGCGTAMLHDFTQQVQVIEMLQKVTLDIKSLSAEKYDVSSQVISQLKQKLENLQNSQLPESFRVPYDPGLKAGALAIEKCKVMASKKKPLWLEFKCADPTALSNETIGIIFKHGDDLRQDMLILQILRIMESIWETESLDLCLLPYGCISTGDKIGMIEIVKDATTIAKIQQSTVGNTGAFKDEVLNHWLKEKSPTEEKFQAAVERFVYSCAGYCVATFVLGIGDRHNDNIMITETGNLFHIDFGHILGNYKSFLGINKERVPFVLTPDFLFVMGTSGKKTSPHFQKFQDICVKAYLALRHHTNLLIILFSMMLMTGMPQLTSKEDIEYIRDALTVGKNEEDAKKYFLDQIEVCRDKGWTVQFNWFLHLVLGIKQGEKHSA

Compound | IC50 (PIK3CA (human)) [µM] | IC50 (PIK3CD (Human)) [µM] | further results
CC1(C)CC(=O)c2sc(N3CCOc4ccccc43)nc2C1 | – | 0.83 | IC50 (PIK3CG (human)): 0.61 µM
CS(=O)(=O)N1CCN(Cc2cc3nc(-c4cnc(N)nc4)nc(N4CCOCC4)c3s2)CC1 | – | 0.016 | IC50 (PIK3CB (Human)): 0.012 µM
O=C(c1ccccc1)c1ccc(N2CCOCC2)cc1O | – | – | IC50 (PIK3CB (Human)): 3.7 µM
Cc1c(OCCN2CCN(C)CC2)ccc2c(=O)nc(N3CCOCC3)oc12 | ≥ 100 | – | –
N#Cc1c(N2CCOCC2)sc(-c2nc[nH]n2)c1-c1ccc(Cl)cc1Cl | 0.00035 | – | –
CC(C)c1nc2ccccc2n1-c1nc(N2CCOCC2)c2nc(OC3CN(C4CCS(=O)(=O)CC4)C3)n(C)c2n1 | – | – | Ki (PIK3CD (Human)): 0.0004 µM

More lines, main results first:

IC50 (PIK3CA (human)) [µM] | IC50 (PIK3CD (Human)) [µM] | Compound | further results
0.0024 | – | CN(C)CCN(C)C(=O)c1ccc(NC(=O)Nc2ccc(-c3nc(N4CCOCC4)c4ccn(CC(F)(F)F)c4n3)cc2)cc1 | –
0.035 | – | CN(C)CCCNC(=O)c1cn2cc(-c3cccc4[nH]ncc34)nc(N3CCOCC3)c2n1 | –
– | 0.003 | Cc1c(Cl)cccc1Cn1c(SCC(=O)O)nc(=O)c2sc(N3CCOCC3)nc21 | –
– | 0.012 | CCOC(=O)c1ccc(-c2csc3c(=O)cc(N4CCOCC4)oc23)cc1 | –
